Test results reported in patent US20130143929A1, “FUNGICIDAL IMIDAZOLES” (EI DU PONT DE NEMOURS AND COMPANY, priority 2010, published 2013).
Marks after values point to notes of the source that are not given here.

What was measured:
Assay type in all cases: in vivo
[1] = tested on: Botrytis cinerea (the causal agent of tomato Botrytis); test: Test C: tomato Botrytis, preventive spray on tomato seedlings, visual disease rating; conditions: tomato Botrytis, preventive spray on tomato seedlings
Text: (§1) General protocol for preparing test suspensions for Tests A-D: the test compounds were first dissolved in acetone in an amount equal to 3% of the final volume and then suspended at the desired concentration (in ppm) in acetone and purified water (50/50 mix by volume) containing 250 ppm of the surfactant Trem® 014 (polyhydric alcohol esters). The resulting test suspensions were then used in Tests A-D. Spraying a 200 ppm test suspension to the point of run-off on the test plants was the equivalent of a rate of 800 g/ha.
The test suspension was sprayed to the point of run-off on tomato seedlings. The following day the seedlings were inoculated with a spore suspension of Botrytis cinerea (the causal agent of tomato Botrytis) and incubated in a saturated atmosphere at 20° C. for 48 h, and then moved to a growth chamber at 24° C. for 3 days, after which time visual disease ratings were made.
(§2) Results for Tests A-E are given in Table A. In the Table, a rating of 100 indicates 100% disease control and a rating of 0 indicates no disease control (relative to the controls). A dash (—) indicates no test results. An asterisk “*” next to the rating value indicates a 40 ppm test suspension was used.

[2] = tested on: Puccinia recondite f. sp. tritici (the causal agent of wheat leaf rust); test: Test A: wheat leaf rust, preventive spray on wheat seedlings, visual disease rating; conditions: wheat leaf rust, preventive spray on wheat seedlings
Text: as §1
The test suspension was sprayed to the point of run-off on wheat seedlings. The following day the seedlings were inoculated with a spore suspension of Puccinia recondite f. sp. tritici (the causal agent of wheat leaf rust) and incubated in a saturated atmosphere at 20° C. for 24 h, and then moved to a growth chamber at 20° C. for 7 days, after which time visual disease ratings were made.
as §2

[3] = tested on: Blumeria graminis f. sp. tritici (also known as Erysiphe graminis f. sp. tritici, the causal agent of wheat powdery mildew); test: Test D: wheat powdery mildew, preventive spray on wheat seedlings, visual disease rating; conditions: wheat powdery mildew, preventive spray on wheat seedlings
Text: as §1
The test suspension was sprayed to the point of run-off on wheat seedlings. The following day the seedlings were inoculated with a spore dust of Blumeria graminis f. sp. tritici, (also known as Erysiphe graminis f. sp. tritici, the causal agent of wheat powdery mildew) and incubated in a growth chamber at 20° C. for 8 days, after which time visual disease ratings were made.
as §2

[4] = tested on: Septoria tritici (the causal agent of wheat leaf blotch); test: Test B: wheat leaf blotch, preventive spray on wheat seedlings, visual disease rating; conditions: wheat leaf blotch, preventive spray on wheat seedlings
Text: as §1
The test suspension was sprayed to the point of run-off on wheat seedlings. The following day the seedlings were inoculated with a spore suspension of Septoria tritici (the causal agent of wheat leaf blotch) and incubated in a saturated atmosphere at 24° C. for 48 h, and then moved to a growth chamber at 20° C. for 19 days, after which time visual disease ratings were made.
as §2

[5] = no asterisk (standard test suspension concentration, not 40 ppm)
[6] = asterisk: 40 ppm test suspension

SMILES | Test C rating (100 = 100% disease control, 0 = no disease control relative to the controls) [1, 5] | Test A rating (100 = 100% disease control, 0 = no disease control relative to the controls) [2, 5] | Test D rating (100 = 100% disease control, 0 = no disease control relative to the controls) [3, 5] | Test B rating (100 = 100% disease control, 0 = no disease control relative to the controls) [4, 5] | Test C rating (100 = 100% disease control, 0 = no disease control relative to the controls) [1, 6] | Test A rating (100 = 100% disease control, 0 = no disease control relative to the controls) [2, 6] | Test D rating (100 = 100% disease control, 0 = no disease control relative to the controls) [3, 6] | Test B rating (100 = 100% disease control, 0 = no disease control relative to the controls) [4, 6]
Cc1nc(Cl)n(-c2ccc(F)cc2F)c1C(O)c1c(F)ccc(I)c1F (racemic) [compound 38] | 7% | 99% | 0% | 95% | – | – | – | –
OC(c1ccc(Cl)cc1)c1c(Cl)nc(Cl)n1-c1c(F)cc(F)cc1Cl (racemic) [compound 39] | 99% | 100% | 99% | 100% | – | – | – | –
OC(c1ccc(F)cc1F)c1c(Cl)nc(Cl)n1-c1c(F)cc(F)cc1Cl (racemic) [compound 40] | 100% | 100% | 100% | 100% | – | – | – | –
OC(c1ccc(F)cc1Cl)c1c(Cl)nc(Cl)n1-c1c(F)cccc1Cl (racemic) [compound 41] | 100% | 100% | 100% | 100% | – | – | – | –
OC(c1ccc(F)cc1Cl)c1c(Br)ncn1-c1ccc(F)cc1Cl (racemic) [compound 215] | – | – | – | – | 55* % | 92* % | 0* % | 85* %
COc1ccc(-n2c(C)nc(Br)c2C(O)c2ccc(F)cc2Cl)c(OC)c1 (racemic) [compound 217] | – | – | – | – | 42* % | 0* % | 0* % | 0* %
OC(c1ccc(F)cc1Cl)c1c(Br)nc(Cl)n1-c1ccc(F)cc1Cl (racemic) [compound 218] | – | – | – | – | 100* % | 100* % | 89* % | 100* %
COc1ccc(C(O)c2c(C)nc(Cl)n2-c2ccc(Cl)cc2Cl)c(Cl)c1 (racemic) [compound 219] | – | – | – | – | 98* % | 99* % | 21* % | 100* %
COc1ccc(C(O)c2c(C)nc(Cl)n2-c2c(F)cccc2F)c(C)c1 (racemic) [compound 220] | – | – | – | – | 100* % | 100* % | 97* % | 100* %
COc1ccc(C(O)c2c(C)nc(Cl)n2-c2c(F)cccc2F)c(Cl)c1 (racemic) [compound 221] | – | – | – | – | 99* % | 100* % | 97* % | 100* %
COc1ccc(C(O)c2c(Br)ncn2-c2c(F)cccc2Cl)c(C)c1 (racemic) [compound 222] | – | – | – | – | 30* % | 91* % | 0* % | 57* %
COc1ccc(C(O)c2c(Br)nc(C)n2-c2c(F)cccc2Cl)c(C)c1 (racemic) [compound 224] | – | – | – | – | 100* % | 100* % | 100* % | 100* %
Cc1cccc(C)c1-n1c(C)nc(Br)c1C(O)c1ccc(F)cc1Cl (racemic) [compound 225] | 37% | 89% | 0% | 83% | – | – | – | –
Cc1cccc(C)c1-n1c(C)nc(Cl)c1C(O)c1ccc(F)cc1Cl (racemic) [compound 226] | 6% | 94% | 0% | 98% | – | – | – | –
Cc1ncc(C(O)c2c(F)cc(F)cc2F)n1-c1c(Cl)cccc1Cl (racemic) [compound 227] | 40% | 84% | 0% | 83% | – | – | – | –
COc1cc(C)c(C(O)c2c(Br)ncn2-c2ccc(F)cc2Cl)cc1Br (racemic) [compound 229] | – | – | – | – | 0* % | 68* % | 0* % | 36* %
COc1ccc(C(O)c2c(Br)ncn2-c2ccc(F)cc2Cl)c(F)c1 (racemic) [compound 230] | – | – | – | – | 99* % | 97* % | 0* % | 50* %
COc1ccc(C(O)c2c(Cl)nc(C)n2-c2c(F)cc(F)cc2Br)c(Cl)c1 (racemic) [compound 231] | – | – | – | – | 99* % | 100* % | 98* % | 100* %
OC(c1ccc(F)cc1Cl)c1c(Br)nc(Br)n1-c1ccc(F)cc1Cl (racemic) [compound 233] | – | – | – | – | 95* % | 100* % | 72* % | 100* %
